system: HEK293-STF3A cells; experiment: STF3A assay (STF luciferase reporter in Wnt3A-expressing HEK293 cells); format: cell-based; settings: Homo sapiens, 24 h, 1 day of treatment
How it was run: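 HEK293 cells carrying the STF reporter and expressing Wnt3A, seeded 2×10^4 per well overnight, then treated 1 day with compound at final 50 μM to 1.5 nM. Luciferase activity read by luminescence after Steady-Glo reagent, 10 min at room temperature.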

| Structure (SMILES) | IC50 [nM] |
| --- | --- |
| CN1C(=O)C2=C(C1=O)N(CC(=O)Nc1ccc(-c3ccccc3)c(F)c1)CCC2 [Compound 80, N-(2-fluoro-[1,1′-biphenyl]-4-yl)-2-(6-methyl-5,7-dioxo-2,3,4,5,6,7-hexahydro-1H-pyrrolo[3,4-b]pyridin-1-yl)acetamide] | < 100 |
| CC(C(=O)Nc1cnc(-c2cccnc2)cn1)N1CCCC2=C1C(=O)N(C)C2=O (centres unmarked) [Compound 23, 2-(6-methyl-5,7-dioxo-2,3,4,5,6,7-hexahydro-1H-pyrrolo[3,4-b]pyridin-1-yl)-N-(5-(pyridin-3-yl)pyrazin-2-yl)propanamide] | < 100 |
| O=C(CN1CCCC2=C1C(=O)N(C1CC1)C2=O)Nc1ncc(-c2cccnc2)cc1F [Compound 107, 2-(6-cyclopropyl-5,7-dioxo-2,3,4,5,6,7-hexahydro-1H-pyrrolo[3,4-b]pyridin-1-yl)-N-(5-fluoro-[3,3′-bipyridin]-6-yl)acetamide] | < 1000 |
| Cc1cccc(-c2ccc(NC(=O)CN3CCCC4=C3C(=O)N(C)C4=O)nn2)c1 [Compound 29, 2-(6-methyl-5,7-dioxo-2,3,4,5,6,7-hexahydro-1H-pyrrolo[3,4-b]pyridin-1-yl)-N-(6-(m-tolyl)pyridazin-3-yl)acetamide] | < 100 |
| CN1C(=O)C2=C(C1=O)N(CC(=O)Nc1ccc(-c3cncc(C(F)(F)F)c3)nn1)CCC2 [Compound 48, 2-(6-methyl-5,7-dioxo-2,3,4,5,6,7-hexahydro-1H-pyrrolo[3,4-b]pyridin-1-yl)-N-(6-(5-(trifluoromethyl)pyridin-3-yl)pyridazin-3-yl)acetamide] | < 100 |
| O=C(CN1CCCC2=C1C(=O)N(C1CC1)C2=O)Nc1cc(F)c(-c2cccnc2)cn1 [Compound 151, 2-(6-cyclopropyl-5,7-dioxo-2,3,4,5,6,7-hexahydro-1H-pyrrolo[3,4-b]pyridin-1-yl)-N-(4-fluoro-3,3′-bipyridin-6-yl)acetamide] | < 100 |
| O=C(CN1CCCC2=C1C(=O)N(C1CC1)C2=O)Nc1ccc(-c2ccccn2)cn1 [Compound 16, N-([2,3′-bipyridin]-6′-yl)-2-(6-cyclopropyl-5,7-dioxo-2,3,4,5,6,7-hexahydro-1H-pyrrolo[3,4-b]pyridin-1-yl)acetamide] | < 100 |
| Cc1ccc(-c2ccc(NC(=O)CN3CCCC4=C3C(=O)N(C3CC3)C4=O)nn2)cn1 [Compound 86, 2-(6-cyclopropyl-5,7-dioxo-2,3,4,5,6,7-hexahydro-1H-pyrrolo[3,4-b]pyridin-1-yl)-N-(6-(6-methylpyridin-3-yl)pyridazin-3-yl)acetamide] | < 100 |
| CN1C(=O)C2=C(C1=O)N(CC(=O)Nc1ccc(-c3ccccc3)cn1)CCC2 [Compound 5, 2-(6-methyl-5,7-dioxo-2,3,4,5,6,7-hexahydro-1H-pyrrolo[3,4-b]pyridin-1-yl)-N-(5-phenylpyridin-2-yl)acetamide] | < 100 |
| CN1C(=O)C2=C(C1=O)N(CC(=O)Nc1ccc(-c3ccc(F)cc3)nn1)CCC2 [Compound 4, N-(6-(4-fluorophenyl)pyridazin-3-yl)-2-(6-methyl-5,7-dioxo-2,3,4,5,6,7-hexahydro-1H-pyrrolo[3,4-b]pyridin-1-yl)acetamide] | < 100 |
| CN1C(=O)C2=C(C1=O)N(CC(=O)Nc1ccc(-c3cncc(F)c3)nc1)CCC2 [Compound 100, N-(5′-fluoro-[2,3′-bipyridin]-5-yl)-2-(6-methyl-5,7-dioxo-2,3,4,5,6,7-hexahydro-1H-pyrrolo[3,4-b]pyridin-1-yl)acetamide] | < 100 |
| CN1C(=O)C2=C(C1=O)N(CC(=O)Nc1ccc(-c3ccncc3)nn1)CCC2 [Compound 71, 2-(6-methyl-5,7-dioxo-2,3,4,5,6,7-hexahydro-1H-pyrrolo[3,4-b]pyridin-1-yl)-N-(6-(pyridin-4-yl)pyridazin-3-yl)acetamide] | < 1000 |
| O=C(CN1CCCC2=C1C(=O)N(C1CC1)C2=O)Nc1ccc(-c2cncnc2)cc1 [Compound 90, 2-(6-cyclopropyl-5,7-dioxo-2,3,4,5,6,7-hexahydro-1H-pyrrolo[3,4-b]pyridin-1-yl)-N-(4-(pyrimidin-5-yl)phenyl)acetamide] | < 100 |
| Cc1cc(NC(=O)CN2CCCC3=C2C(=O)N(C2CC2)C3=O)nnc1-c1cccnc1 [Compound 62, 2-(6-cyclopropyl-5,7-dioxo-2,3,4,5,6,7-hexahydro-1H-pyrrolo[3,4-b]pyridin-1-yl)-N-(5-methyl-6-(pyridin-3-yl)pyridazin-3-yl)acetamide] | < 5000 |
| O=C(CN1CCCC2=C1C(=O)N(C1CC1)C2=O)Nc1ccc(-c2cncc(C(F)F)c2)nn1 [Compound 61] | < 100 |
| O=C(CN1CCCC2=C1C(=O)N(C1CC1)C2=O)Nc1ccc(-c2cncc(Cl)c2)nn1 [Compound 58, N-(6-(5-chloropyridin-3-yl)pyridazin-3-yl)-2-(6-cyclopropyl-5,7-dioxo-2,3,4,5,6,7-hexahydro-1H-pyrrolo[3,4-b]pyridin-1-yl)acetamide] | < 100 |

| Structure (SMILES) | IC50 [nM] |
| --- | --- |
| CN1C(=O)C2=C(C1=O)N(CC(=O)Nc1ccc(-c3ccccc3)nn1)CCC2 [Compound 3, 2-(6-methyl-5,7-dioxo-2,3,4,5,6,7-hexahydro-1H-pyrrolo[3,4-b]pyridin-1-yl)-N-(6-phenylpyridazin-3-yl)acetamide] | < 100 |
| O=C(CN1CCCC2=C1C(=O)N(C1CC1)C2=O)Nc1ccc(-c2ccc(F)cn2)cn1 [Compound 127, 2-(6-cyclopropyl-5,7-dioxo-2,3,4,5,6,7-hexahydro-1H-pyrrolo[3,4-b]pyridin-1-yl)-N-(5-fluoro-[2,3′-bipyridin]-6′-yl)acetamide] | < 100 |
| CN1C(=O)C2=C(C1=O)N(CC(=O)Nc1ccc(-c3ccc(C(F)(F)F)cc3)nn1)CCC2 [Compound 49, 2-(6-methyl-5,7-dioxo-2,3,4,5,6,7-hexahydro-1H-pyrrolo[3,4-b]pyridin-1-yl)-N-(6-(4-(trifluoromethyl)phenyl)pyridazin-3-yl)acetamide] | < 10000 |
| C[C@H](C(=O)Nc1ccc(-c2cccnc2)nc1)N1CCCC2=C1C(=O)N(C)C2=O (single isomer, unassigned) [Compound 117] | < 1000 |
| CN1C(=O)C2=C(C1=O)N(CC(=O)Nc1ccc(-c3ccc(F)cc3)nc1)CCC2 [Compound 152, N-(6-(4-fluorophenyl)pyridin-3-yl)-2-(6-methyl-5,7-dioxo-2,3,4,5,6,7-hexahydro-1H-pyrrolo[3,4-b]pyridin-1-yl)acetamide] | < 100 |
| Cc1ccc(-c2cnc(NC(=O)CN3CCCC4=C3C(=O)N(C)C4=O)cn2)cn1 [Compound 35] | < 1000 |
| Cc1ccc(-c2ccc(NC(=O)CN3CCCC4=C3C(=O)N(C)C4=O)cn2)cc1 [Compound 158, 2-(6-methyl-5,7-dioxo-2,3,4,5,6,7-hexahydro-1H-pyrrolo[3,4-b]pyridin-1-yl)-N-(6-(p-tolyl)pyridin-3-yl)acetamide] | < 100 |
| Cc1cncc(-c2ccc(NC(=O)CN3CCCC4=C3C(=O)N(C)C4=O)nc2)n1 [Compound 129, 2-(6-methyl-5,7-dioxo-2,3,4,5,6,7-hexahydro-1H-pyrrolo[3,4-b]pyridin-1-yl)-N-(5-(6-methylpyrazin-2-yl)pyridin-2-yl)acetamide] | < 100 |
| CN1C(=O)C2=C(C1=O)N(CC(=O)Nc1ccc(-c3nccs3)cn1)CCC2 [Compound 6, 2-(6-methyl-5,7-dioxo-2,3,4,5,6,7-hexahydro-1H-pyrrolo[3,4-b]pyridin-1-yl)-N-(5-(thiazol-2-yl)pyridin-2-yl)acetamide] | < 100 |
| O=C(CN1CCCC2=C1C(=O)N(C1CC1)C2=O)Nc1cnc(-c2cncc(F)c2)cn1 [Compound 142, 2-(6-cyclopropyl-5,7-dioxo-2,3,4,5,6,7-hexahydro-1H-pyrrolo[3,4-b]pyridin-1-yl)-N-(5-(5-fluoropyridin-3-yl)pyrazin-2-yl)acetamide] | < 100 |
| O=C(CN1CCCC2=C1C(=O)N(C1CC1)C2=O)Nc1ccc(-c2cccc(C(F)(F)F)c2)nn1 [Compound 55, 2-(6-cyclopropyl-5,7-dioxo-2,3,4,5,6,7-hexahydro-1H-pyrrolo[3,4-b]pyridin-1-yl)-N-(6-(3-(trifluoromethyl)phenyl)pyridazin-3-yl)acetamide] | < 100 |
| CN1C(=O)C2=C(C1=O)N(CC(=O)Nc1ccc(-c3ccc(F)nc3)nc1)CCC2 [Compound 108, N-(6′-fluoro-[2,3′-bipyridin]-5-yl)-2-(6-methyl-5,7-dioxo-2,3,4,5,6,7-hexahydro-1H-pyrrolo[3,4-b]pyridin-1-yl)acetamide] | < 1000 |
| Cc1cc(-c2cccnc2)cnc1NC(=O)CN1CCCC2=C1C(=O)N(C)C2=O [Compound 113, 2-(6-methyl-5,7-dioxo-2,3,4,5,6,7-hexahydro-1H-pyrrolo[3,4-b]pyridin-1-yl)-N-(5-methyl-[3,3′-bipyridin]-6-yl)acetamide] | > 10000 |
| CN1C(=O)C2=C(C1=O)N(CC(=O)Nc1ccc(-c3ccccc3)cc1)CCC2 [Compound 70, N-([1,1′-biphenyl]-4-yl)-2-(6-methyl-5,7-dioxo-2,3,4,5,6,7-hexahydro-1H-pyrrolo[3,4-b]pyridin-1-yl)acetamide] | < 100 |
| Cc1cncc(-c2ncc(NC(=O)CN3CCCC4=C3C(=O)N(C3CC3)C4=O)cc2C)c1 [Compound 68, 2-(6-cyclopropyl-5,7-dioxo-2,3,4,5,6,7-hexahydro-1H-pyrrolo[3,4-b]pyridin-1-yl)-N-(3,5′-dimethyl-[2,3′-bipyridin]-5-yl)acetamide] | < 100 |
| Cc1ccnc(-c2ccc(NC(=O)CN3CCCC4=C3C(=O)N(C3CC3)C4=O)nc2)c1 [Compound 150, 2-(6-cyclopropyl-5,7-dioxo-2,3,4,5,6,7-hexahydro-1H-pyrrolo[3,4-b]pyridin-1-yl)-N-(4-methyl-[2,3′-bipyridin]-6′-yl)acetamide] | < 100 |

— patent publication US9981964B2 (Agency for Science, Technology and Research, priority 2013, dated 2018)
